# Reference: patent publication US12486259B2, “FXR agonist having pyrazine structure, and preparation method and use” (JIANGSU TASLY DIYI PHARMACEUTICAL CO., LTD., priority 2020, dated 2025)
# Biological target: T1, FXR (Homo sapiens, UniProt Q96RI1)
# T1 construct: expressed in transfected cells
# T1 sequence (Q96RI1 1-486): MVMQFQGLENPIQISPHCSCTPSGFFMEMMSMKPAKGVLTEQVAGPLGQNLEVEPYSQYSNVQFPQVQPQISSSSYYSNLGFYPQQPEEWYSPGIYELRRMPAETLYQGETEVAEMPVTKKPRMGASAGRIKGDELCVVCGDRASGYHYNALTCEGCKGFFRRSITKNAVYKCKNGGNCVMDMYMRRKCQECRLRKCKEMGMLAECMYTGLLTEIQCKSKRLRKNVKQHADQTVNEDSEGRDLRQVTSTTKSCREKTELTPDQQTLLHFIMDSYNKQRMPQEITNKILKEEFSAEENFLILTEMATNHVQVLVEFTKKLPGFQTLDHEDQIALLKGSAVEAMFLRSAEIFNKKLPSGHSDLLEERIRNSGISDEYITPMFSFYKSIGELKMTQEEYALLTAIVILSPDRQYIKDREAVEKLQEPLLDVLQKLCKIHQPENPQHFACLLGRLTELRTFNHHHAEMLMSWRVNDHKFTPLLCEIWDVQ
# Experiment: Intracellular FXR-TR-FRET experiment (pBIND-FXR / pG5Luc dual luciferase)
# Format: cell-based
# Details: cellular level, 18 hours with compound
# Experimental: • 1. Cell culture: a, trypsinize dishes and seed cells are taken with appropriate density in 10 ml of complete […] at 37° C. b. Cells are incubated for 24 hours in 5% CO2 and humidified. • 2. Cell inoculation and transfection: FuGENE HD transfection reagent is used as a transfection reagent. • a. The transfection mixture is prepared according to the following procedure:
# • b. The tube is tapped vigorously to mix the contents. The mixture is incubated at room temperature for 15 minutes. • c. Discs are trypsinized and cell density is determined. • d. The cytolymph is diluted to the desired volume at a density of 500,000 cells/ml (100 ul/well for 96-well plate). • e. The required volume of previously prepared transfection mixture is added to both cytolymph, and then 100 ul/well of cytolymph is dispensed onto the assay plate. • f. The assay plate is incubated under humidified conditions at 37° C., 5% CO2 for 24 hours. • 3. Compound preparation: • a. Compound stocks are prepared with a FXR working concentration of 10 mM and then diluted 3-fold in 100% DMSO. • b. 10 ul compound is added to 90 ul complete medium. • c. 5 ul compound solution is added to each well. • d. The plate is incubated at 37° C., 5% CO2 and humidified for 18 hours. • 4. Dual luciferase assay: the firefly and Renilla luciferase signals are analyzed by Dual Luciferase Reporter Assay System from Promega. Envision is used as a photometer. • 5. Result calculation: data values are normalized by dividing the firefly signal by the Renilla signal. “F/R” means “firefly/Renilla”. This normalization eliminates differences in different cell numbers and transfection efficiencies in each well. The % Activation value is calculated. The % Activation value is calculated by the following formula.
# X is the “F/R” value for each concentration point. The minimum value is the average “F/R” value for the no compound control. The maximum value is the average “F/R” value of the reference compound control. • 6.
row,EC50,Compound
1,3140 nM,"O=C(O)c1cccc(N2CC(O)(c3cnc(OCc4c(-c5c(Cl)cccc5Cl)noc4C4CC4)cn3)C2)c1 [TM-02, 3-(3-(5-((5-cyclopropyl-3-(2,6-dichlorophenyl)isoxazol-4-yl)methoxy)pyrazine-2-yl)-3-hydroxyazetidin-1-yl) benzoic acid]"
2,1790 nM,"CC(C)c1onc(-c2c(Cl)cccc2Cl)c1COc1cnc(C2(O)CC(c3cccc(C(=O)O)c3)C2)cn1 (stereo not shown) [TM-06, 3-(3-(5-(5-isopropyl-3-(2,6-dichlorophenyl)isoxazole-4-ylmethoxy)-2-pyrazine)-1-hydroxycyclobutane) benzoic acid]"
3,260 nM,"Cc1cc(C(=O)O)cc(C2CC(O)(c3cnc(OCc4c(-c5c(Cl)cccc5Cl)noc4C(C)C)cn3)C2)c1 (stereo not shown) [TM-09, 3-(3-(5-((3-(2,6-dichlorophenyl)-5-isopropylisoxazol-4-yl)methoxy)pyrazine-2-yl)-3-hydroxycyclobutyl)-5-methyl benzoic acid]"
4,1280 nM,"O=C(O)c1cccc(C2CC(O)(c3cnc(OCc4c(-c5c(Cl)cccc5Cl)noc4C4CC4)cn3)C2)c1 (stereo not shown) [TM-01, 3-(3-(5-(5-cyclopropyl-3-(2,6-dichlorophenyl)isoxazole-4-ylmethoxy)-2-pyrazine)-1-hydroxycyclobutane) benzoic acid]"
